Assay results published in US20120055467A1, “METERED-DOSE INHALER AND METHOD OF USING THE SAME” (CHIESI FARMACEUTICI S.P.A., priority 2010, published 2012).

Experiment: Andersen Cascade Impactor (ACI) evaluation of pMDI spray drug delivery characteristics
Type: physicochemical
Method: Spray characteristics of the system were evaluated by an Andersen cascade impactor fitted with a USP throat (App. 1, USP 33). […] This was repeated twice. Pre- and post-shot weights were recorded. […] The solutions were analysed by using a UPLC/MS (Ultra Performance Liquid Chromatography/Mass Spectrometry) system for the determination of the drug deposition.

[1] = Ex 2/3, Standard MDI, single can, 0.22 mm orifice, mean, n=3
[2] = Ex 2, Dual MDI, Formulations 3+4, single 0.22 mm orifice, mean, n=2
[3] = Ex 3, Dual MDI, Formulation 3 + placebo Formulation 5, single 0.22 mm orifice, mean, n=3
[4] = Ex 5, Dual-MDI, Formulations 8+3, single 0.22 mm orifice, mean, n=3
[5] = Ex 19, dual reservoir-single orifice prototype (FIG. 14B)
[6] = Ex 19, dual reservoir-single orifice prototype (FIG. 14B), BDP/Formoterol 100/6 μg/25 μl + glycopyrronium bromide 12.5 μg/25 μl
[7] = Ex 20, triple reservoir-single orifice prototype (FIG. 16B)
[8] = Ex 20, triple reservoir-single orifice prototype (FIG. 16B), BDP/Formoterol + glycopyrronium bromide + budesonide 50 μg/25 μl

With `COc1ccc(C[C@@H](C)NC[C@H](O)c2ccc(O)c(NC=O)c2)cc1.COc1ccc(C[C@@H](C)NC[C@H](O)c2ccc(O)c(NC=O)c2)cc1.O=C(O)/C=C/C(=O)O` [Formoterol, Formoterol fumarate] the “Delivered Dose” value (Ex 2/3, Standard MDI, single can (BDP 100 μg/50 μl or formoterol fumarate 6 μg/50 μl), 0.22 mm orifice, mean, n=3) was 4.1 µg, the “FPD ≦ 5 μm” value [1] was 2.1 µg and the FPF [1] was 51.9%. For the same molecule, the MMAD [1] was 0.9 μm, the “Delivered Dose” value (Ex 2, Dual MDI, Formulation 3 (formoterol fumarate 6 μg/25 μl) + Formulation 4 (BDP 100 μg/25 μl, glycerol) mixed, single 0.22 mm orifice, mean, n=2) was 3.2 µg and the “FPD ≦ 5 μm” value [2] was 1.9 µg. For the same molecule, the FPF [2] was 61.1%, the MMAD [2] was 2.1 μm and the “Delivered Dose” value (Ex 3, Dual MDI, Formulation 3 (formoterol 6 μg/25 μl) + placebo Formulation 5 (glycerol), single 0.22 mm orifice, mean, n=3) was 4.2 µg. For the same molecule, the “FPD ≦ 5 μm” value [3] was 2.7 µg, the FPF [3] was 64.0% and the MMAD [3] was 1.5 μm. For the same molecule, the “Delivered Dose” value (Ex 5, Dual-MDI, Formulation 8 (budesonide 400 μg/63 μl) + Formulation 3 (formoterol 6 μg/25 μl), single 0.22 mm orifice, mean, n=3) was 3.5 ± 0.7 µg, the “FPD ≦ 5 μm” value [4] was 1.9 ± 0.2 µg and the FPF [4] was 53.6 ± 6.6%. The MMAD [4] was 1.7 ± 0.1 μm, the “Delivered Dose” value [5] was 3.6 µg and the FPD [5] was 1.6 µg. For the same molecule, the FPF [5] was 44.3%, the MMAD [5] was 1.3 μm and the “Metered Dose” value [6] was 5.7 µg. For the same molecule, the “Delivered Dose” value [7] was 3.3 µg, the FPD [7] was 1.1 µg and the FPF [7] was 33.9%. The MMAD [7] was 1.5 μm and the “Metered Dose” value [8] was 5.2 µg.
For `C[N+]1(C)CCC(OC(=O)C(O)(c2ccccc2)C2CCCC2)C1` (stereo not drawn) [Glycopyrronium bromide], the “Delivered Dose” value [5] was 7.9 µg, the FPD [5] was 3.5 µg and the FPF [5] was 44.1%. For the same molecule, the MMAD [5] was 1.3 μm, the “Metered Dose” value [6] was 11.3 µg and the “Delivered Dose” value [7] was 6.9 µg. For the same molecule, the FPD [7] was 2.2 µg, the FPF [7] was 32.4% and the MMAD [7] was 1.4 μm. The “Metered Dose” value [8] was 10.8 µg.
